Data: US12178867B2, “MHC class i associated peptides for prevention and treatment of multiple flavi virus” (priority 2018, dated 2024)

How the values were obtained:
[1] = tested on: peptide loaded HepG2 cells; test: CTL assay: peptide-stimulated PBMCs of naive HLA-A24+ donor co-cultured with peptide loaded HepG2 cells, flow cytometry (FIG. 4); assay type: cell-based, human; settings: blank HepG2 cells as control
Procedure: FIG. 4: Utilizing a healthy (naive) human HLA-A24+ donor, peripheral blood mononuclear cells (PBMCs) were stimulated with peptide epitopes in a cytokine cocktail to induce antigen specific CTL response. These stimulated PBMCs were then assayed by co-culturing peptide loaded targets for antigen specific response. Hep2G cells were used for peptide loading, and blank Hep2G cells used as control. Also used was HepG2 cells infected with Dengue (DV2) and Zika. Expanded PBMCs were assayed for both CD8/IFNg double expression by flow cytometry. All 4 peptide epitopes induced CD8+ IFNg expression to peptide loaded HepG2 cells in a peptide specific manner. […] FIG. 5: Transgenic A2 mice were immunized with 200 ng of NP-Dengue peptides. The spleen cells were isolated and then exposed to either Zika or Dengue infected cells. […] Acid stripping of the peptides makes the cells non-response.
In a further experiment, utilizing a healthy (naive) human HLA-A24+ donor, peripheral blood mononuclear cells (PBMCs) were stimulated with peptide epitopes in a cytokine cocktail to induce antigen specific CTL response. These stimulated PBMCs were then assayed by co-culturing peptide loaded targets for antigen specific response (FIG. 4). Hep2G cells were used for peptide loading, and blank Hep2G cells used as control. Also used was HepG2 cells infected with Dengue (DV2) and Zika. […]

[2] = tested on: peptide loaded T2 cells; test: CTL assay: peptide-stimulated PBMCs of naive HLA-A2+ donor co-cultured with peptide loaded T2 cells, flow cytometry (FIG. 3A); assay type: cell-based, human
Procedure: FIGS. 3A and 3B: (FIG. 3A) Utilizing a healthy (naive) human HLA-A2+ donor, peripheral blood mononuclear cells (PBMCs) were stimulated with peptide epitopes in a cytokine cocktail to induce antigen specific CTL response. These stimulated PBMCs were then assayed by co-culturing peptide loaded targets for antigen specific response. TAP-deficient cells (T2) were used for peptide loading, and blank T2 cells used as control. Expanded PBMCs were assayed for both CD107a degranulation and interferon gamma (IFN-g) markers by flow cytometry. All 6 peptide epitopes induced CD8+ CD107a and IFNg expression to peptide loaded T2 cells in a peptide specific manner. […] (FIG. 3B) Utilizing a healthy (naive) human HLA-A2+ donor, peripheral blood mononuclear cells (PBMCs) were stimulated with peptide epitopes in a cytokine cocktail to induce antigen specific CTL response. These stimulated PBMCs were then assayed by co-culturing with Hep2G infected cells (DV2/Zika). Uninfected HepG2 cells were used as control. Expanded PBMCs were assayed for both CD107a degranulation and interferon gamma (IFN-g) markers by flow cytometry.
In one experiment, utilizing a healthy (naive) human HLA-A2+ donor, peripheral blood mononuclear cells (PBMCs) were stimulated with peptide epitopes in a cytokine cocktail to induce antigen specific CTL response. […]

“PMAAVGLLIVS (listed as Dengue virus) [SEQ ID NO: 2]” was tested, and the “CD8+ IFNg expression to peptide loaded HepG2 cells” value [1] was “particular pronounced IFNg+ effect” and the “IFNg+ effect” value [2] was “particular pronounced IFNg+ effect”.
